Assay type in all cases: cell-based
One assay addresses T1, ER (Homo sapiens, UniProt P03372).
T1 construct: endogenous in cells; host or cells: T47d-kb-Luc (T47D stably transfected with a luciferase reporter gene only)
T1 sequence (P03372 1-595): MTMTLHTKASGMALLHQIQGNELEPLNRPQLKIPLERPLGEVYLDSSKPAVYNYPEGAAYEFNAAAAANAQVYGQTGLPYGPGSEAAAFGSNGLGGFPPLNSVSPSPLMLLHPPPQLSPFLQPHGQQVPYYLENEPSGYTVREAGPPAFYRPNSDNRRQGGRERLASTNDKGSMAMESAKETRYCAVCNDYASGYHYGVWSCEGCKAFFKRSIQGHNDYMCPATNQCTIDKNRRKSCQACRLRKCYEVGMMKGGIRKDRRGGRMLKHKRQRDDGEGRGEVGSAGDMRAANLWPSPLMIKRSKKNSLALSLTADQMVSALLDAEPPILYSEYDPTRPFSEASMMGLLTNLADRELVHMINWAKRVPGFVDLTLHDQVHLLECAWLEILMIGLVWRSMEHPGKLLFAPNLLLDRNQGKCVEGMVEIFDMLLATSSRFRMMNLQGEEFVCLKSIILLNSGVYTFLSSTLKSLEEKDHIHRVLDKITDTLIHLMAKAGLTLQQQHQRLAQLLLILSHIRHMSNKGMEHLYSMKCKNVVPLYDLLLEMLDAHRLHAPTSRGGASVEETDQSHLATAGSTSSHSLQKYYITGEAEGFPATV
Put plainly: ER antagonism (T47D ERE luciferase), T47d-kb-Luc cells. The note with it: read-out: IC50 (ER antagonistm). Here is the method:
The Antiestrogenic Activity of the Exemplary Compounds was Assessed in T47d-kb-Luc Stably Transfected Human Breast Cancer Cell
Antagonist activities were measured by the compound's ability to inhibit the activity of estradiol, the natural estrogen. Data were then normalized relative to the activity of the estradiol control and determinations were performed for five concentrations of the samples in quadruplicate in at least three separate experiments.

Assay [1] deals with MCF-7 breast cancer cells. Put plainly: MCF-7 proliferation / cell viability assay. Particulars: Homo sapiens, MCF7; MCF-7 proliferation with 0.1 nM 17-beta estradiol; read-out: IC50 (anti-proliferation). The procedure: The Anti-Proliferative Activities of the Exemplary Compounds were Assessed by a Cell Viability Assay in MCF-7 Breast Cancer Cells
MCF-7 cells were plated in six-well plates at a density of 50,000 each well in 5% FBS DMEM medium. The cells were then treated with exemplary compounds or fulvestrant separately at 6 different doses ranging from 10^−10 M to 10^−5 M for 5 days, while equal volumes of DMSO were used as vehicle controls. Viable cell numbers were counted with a Z Series Coulter Counter instrument (Beckman-Coulter) following manufacturer's instructions. The ratio of drug treated viable cell numbers to vehicle treated viable cell numbers was defined as survival ratio where the control has the survival ratio of 100%.

For the next assay, the target named is T2, ERα (Homo sapiens, UniProt P03372).
T2 construct: endogenous in cells; host or cells: MCF-7
T2 sequence (P03372 1-595): T1 sequence (P03372 1-595)
The assay is described as follows: ER degradation in MCF-7 cells (Western blot). The note with it: for DC50: ER degradation, 24 hours; for Dmax: MCF7, Maximal ER degradation, read-out: Dmax. The procedure: Degradation of ER in MCF-7 Breast Cancer Cells by Exemplary Compounds of the Present Disclosure
MCF-7 cells were plated in 24-well plates at a density of 10^5 cells/well. Media containing various drug concentrations were added on the day following plating (day 0) and allowed to incubate for 24 hours for Western blot. Media with the tested compound was changed every other day. Cells were lysed, snapped frozen in liquid nitrogen, and stored at −80° C. until assay for ERα. Media were removed and dishes were washed with 1× DPBS. Lysates were made by adding 150 μL of complete lysis solution and scraping cells into a 1.5 mL microcentrifuge tube. Lysates were placed on a rotisserie at 4° C. for 30 min and then spun at 4° C. at 12000 rcf for 10 min. Supernatants were assayed for protein content, snap-frozen, and stored a −80° C. if not run immediately. Then 50 μg of protein was subjected to Western blot protocol. Membranes were blocked and then incubated with 1:200 dilution of ERα antibody at 4° C. overnight followed by 1:10000 dilution of secondary antibody for 1 h at room temperature. They were then imaged on a LICOR infrared scanner.
FIGS. 1 to 10 show the ER degradation efficacy of compounds 3, 5, 9, 11, 12, 16, 18, 19, 20, 21, 23, 24, 25, 26, 27, 28, 29, 30, 31, 32, 33, 34, 37, 38, and 40 in MCF-7 cells at various concentrations. Degradation of ER was expressed as an DC50 value and was determined for exemplary compounds in Table 1 by calculation of the concentration of compound that was required to give a 50% reduction of ER expression level. Maximal degradation of ER was expressed as a Dmax value by measuring the highest percentage of ER reduction achieved by exemplary compound in the treatment concentration range.
(In general: Immunoblotting shows a protein as a band on a membrane.)

SMILES strings stand for the structures.

The term DC50 denotes the concentration at which degradation of the target reaches its halfway point. Read a low DC50 as degradation at low concentration. The term Dmax denotes the greatest extent of degradation seen.

Consider `CC/C(=C(\c1ccc(B(O)O)cc1)c1ccc(N2CCC(CN3CCN(c4ccc5c(c4)CN(C4CCC(=O)NC4=O)C5=O)CC3)CC2)cc1)c1ccccc1` (stereo not shown) [Compound 1], for which the IC50 at ER lay within 10 to 50 nM. Also, the IC50 in assay [1] was in the range of 10 to 50 nM. On ERα, the DC50 is under 10 nM and the Dmax is over 90%.

As for `CC/C(=C(\c1ccc(OCCN2CCN(c3ccc4c(c3)C(=O)N(C3CCC(=O)NC3=O)C4=O)CC2)cc1)c1ccc(B(O)O)cc1)c1ccccc1` (stereo not shown) [Compound 42, (E)-(4-(1-(4-(2-(4-(2-(2,6-dioxopiperidin-3-yl)-1,3-dioxoisoindolin-5-yl)piperazin-1 yl)ethoxy)phenyl)-2-phenylbut-1-en-1-yl)phenyl)boronic acid], the IC50 (at ER; in assay [1]) was 10 to 50 nM throughout. On ERα, the DC50 is 10 to 50 nM. Moreover, on ERα, the greatest degradation seen (Dmax) was over 50%.

Turning to `CC/C(=C(/c1ccc(B(O)O)cc1)c1ccc(N2CCN(CCCC3CCN(c4ccc5c(c4)C(=O)N(C4CCC(=O)NC4=O)C5=O)CC3)CC2)cc1)c1ccccc1` (stereo not shown) [Compound 56, (E)-(4-(1-(4-(4-(3-(1-(2-(2,6-dioxopiperidin-3-yl)-1,3-dioxoisoindolin-5-yl)piperidin-4-yl)propyl)piperazin-1-yl)phenyl)-2-phenlbut-1-en-1-yl)phenyl)boronic acid], the IC50 on ER was in the range of 10 to 50 nM. Also, in assay [1], the IC50 lay in the range of 10 to 50 nM. On ERα, the DC50 is under 10 nM and the maximal degradation (Dmax) was over 75%.

Turning to `CC/C(=C(/c1ccc(O)cc1)c1ccc(OCCN2CCN(C(=O)N3CCN(c4ccc5c(c4)CN(C4CCC(=O)NC4=O)C5=O)CC3)CC2)cc1)c1ccccc1` (stereo not shown) [Compound 80, (E)-3-(5-(4-(4-(2-(4-(1-(4-hydroxyphenyl)-2-phenylbut-1-en-1-yl)phenoxy)ethyl)piperazine-1-carbonyl)piperazin-1-yl)-1-oxoisoindolin-2-yl)piperidine-2,6-dione], the IC50 at ER was under 10 nM. For the same compound, the IC50 in assay [1] was under 10 nM. In addition, at ERα, the half-maximal degradation concentration (DC50) was under 10 nM and the Dmax is over 90%.

Consider `CC/C(=C(/c1ccc(B(O)O)cc1)c1ccc(N2CCN(C(=O)N3CCC(CN4CCN(c5ccc6c(c5)CN(C5CCC(=O)NC5=O)C6=O)CC4)CC3)CC2)cc1)c1ccccc1` (stereo not shown) [Compound 116, (E)-(4-(1-(4-(4-(4-((4-(2-(2,6-dioxopiperidin-3-yl)-1-oxoisoindolin-5-yl)piperazin-1-yl)methyl)piperidine-1-carbonyl)piperazin-1-yl)phenyl)-2-phenylbut-1-en-1-yl)phenyl)boronic acid], for which the IC50 on ER is under 10 nM. Moreover, in assay [1], the IC50 is under 10 nM. Moreover, on ERα, the DC50 was under 10 nM and the Dmax is over 90%.

Turning to `CC/C(=C(/c1ccc(B(O)O)cc1)c1ccc(N2CCC(CN3CCN(c4ccc5c(c4)C(=O)N(C4CCC(=O)NC4=O)C5=O)CC3)CC2)cc1)c1ccccc1` (stereo not shown) [Compound 6, (E)-(4-(1-(4-(4-((4-(2-(2,6-dioxopiperidin-3-yl)-1,3-dioxoisoindolin-5-yl)piperazin-1-yl)methyl)piperidin-1-yl)phenyl)-2-phenylbut-1-en-1-yl)phenyl)boronic acid], the IC50 on ER was 10 to 50 nM; in assay [1] it was over 50 nM. At ERα, this compound returned a DC50 of 10 to 50 nM. Moreover, the Dmax at ERα was over 90%.

Regarding `CC/C(=C(/c1ccc(B(O)O)cc1)c1ccc(N2CCN(C(=O)N3CCC(N4CCN(c5ccc6c(c5)CN(C5CCC(=O)NC5=O)C6=O)CC4)CC3)CC2)cc1)c1ccccc1` (stereo not shown) [Compound 112, (E)-(4-(1-(4-(4-(4-(4-(2-(2,6-dioxopiperidin-3-yl)-1-oxoisoindolin-5-yl)piperazin-1-yl)piperidine-1-carbonyl)piperazin-1-yl)phenyl)-2-phenylbut-1-en-1-yl)phenyl)boronic acid], the IC50 at ER is under 10 nM. For the same compound, the IC50 in assay [1] lay in the range of 10 to 50 nM. Further, on ERα, the half-maximal degradation concentration (DC50) was 10 to 50 nM and the greatest degradation seen (Dmax) was over 90%.

For the compound `CC/C(=C(/c1ccc(B(O)O)cc1)c1ccc(C2CCN(CCCN3CCN(c4ccc5c(c4)C(=O)N(C4CCC(=O)NC4=O)C5=O)CC3)CC2)cc1)c1ccccc1` (stereo not shown) [Compound 48, (E)-(4-(1-(4-(1-(3-(4-(2-(2,6-dioxopiperidin-3-yl)-1,3-dioxoisoindolin-5-yl)piperazin-1-yl)propyl)piperidin-4-yl)phenyl)-2-phenylbut-1-en-1-yl)phenyl)boronic acid], on ER, the IC50 lay within 10 to 50 nM. The IC50 in assay [1] fell in the range of 10 to 50 nM. Moreover, at ERα, the 50% degradation concentration (DC50) is under 10 nM and the maximal degradation (Dmax) was over 90%.

For the compound `CC/C(=C(\c1ccc(B2OC(C)(C)C(C)(C)O2)cc1)c1ccc(N2CCC(CCN3CCN(c4ccc5c(c4)CN(C4CCC(=O)NC4=O)C5=O)CC3)CC2)cc1)c1ccccc1` (stereo not shown) [Compound 9, (Z)-3-(1-oxo-5-(4-(2-(1-(4-(2-phenyl-1-(4-(4,4,5,5-tetramethyl-1,3,2-dioxaborolan-2-yl)phenyl)but-1-en-1-yl)phenyl)piperidin-4-yl)ethyl)piperazin-1-yl)isoindolin-2-yl)piperidine-2,6-dione], the IC50 at ER is under 10 nM. Also, in assay [1], the IC50 is under 10 nM. On ERα, the half-maximal degradation concentration (DC50) is 10 to 50 nM and the maximal degradation (Dmax) was over 90%.

Take `CC/C(=C(/c1ccc(OCCN2CCN(C(=O)N3CCC(N4CCN(c5ccc6c(c5)CN(C5CCC(=O)NC5=O)C6=O)CC4)CC3)CC2)cc1)c1ccc(B(O)O)cc1)c1ccccc1` (stereo not shown) [Compound 95]: the IC50 (on ER; in assay [1]) was under 10 nM each time. On ERα, the half-maximal degradation concentration (DC50) was in the range of 10 to 50 nM. Besides, the maximal degradation (Dmax) on ERα is over 90%.

On to `CC/C(=C(\c1ccc(B(O)O)cc1)c1ccc(N2CCC(CNC3CCN(c4ccc5c(c4)CN(C4CCC(=O)NC4=O)C5=O)CC3)CC2)cc1)c1ccccc1` (stereo not shown) [Compound 11], for which, at ER, the IC50 is under 10 nM. Also, the IC50 in assay [1] is under 10 nM. Further, at ERα, the half-maximal degradation concentration (DC50) was under 10 nM and the greatest degradation seen (Dmax) is over 90%.

As to `CC/C(=C(\c1ccc(OCCN2CCN(C(=O)N3CCC(N4CCN(c5ccc6c(c5)CN(C5CCC(=O)NC5=O)C6=O)CC4)CC3)CC2)cc1)c1ccc(B(O)O)cc1)c1ccccc1` (stereo not shown) [Compound 96, (E)-(4-(1-(4-(2-(4-(4-(4-(2-(2,6-dioxopiperidin-3-yl)-1-oxoisoindolin-5-yl)piperazin-1-yl)piperidine-1-carbonyl)piperazin-1-yl)ethoxyl)phenyl)-2-phenylbut-1-en-1-yl)phenyl)boronic acid], the IC50 (on ER; in assay [1]) was under 10 nM each time. For the same compound, the DC50 at ERα lay in the range of 10 to 50 nM. The Dmax at ERα is over 90%.

On to `CC/C(=C(\c1ccc(OCCCCCN2CCN(c3ccc4c(c3)CN(C3CCC(=O)NC3=O)C4=O)CC2)cc1)c1ccc(B(O)O)cc1)c1ccccc1` (stereo not shown) [Compound 36], for which the IC50 on ER was in the range of 10 to 50 nM. Also, the IC50 in assay [1] lay in the range of 10 to 50 nM. Besides, on ERα, the half-maximal degradation concentration (DC50) lay within 10 to 50 nM and the Dmax was over 90%.

The values above are taken from US20220348595A1, “COMPOUNDS AND METHODS FOR THE TARGETED DEGRADATION OF ESTROGEN RECEPTORS” (Endotarget Inc., priority 2021, published 2022).
